Data published in ChEMBL document CHEMBL5634187, “Identification of Selective Imidazopyridine CSF1R Inhibitors” (ACS Med Chem Lett, 2024).
Values after ≈ are worked out from the molar mass of the structure shown.

Tests used:
physchem [1] = details: buffer, pH 7.4
Description: Solubility of compound at pH 7.4

physchem [2] = details: octanol/water
Description: Lipophilicity, logD of the compound

in vitro [3] = details: human, Caco-2
Description: Permeability in human Caco-2 cells

in vitro [4] = details: human, liver microsomes
Description: Intrinsic clearance in human liver microsomes

in vitro [5] = details: rat, liver microsomes
Description: Intrinsic clearance in rat liver microsomes

[6] = biological target: CYP450 (isoform not stated) (Homo sapiens, UniProt P04798+P05177+P05181+P08684+P10632+P10635+P11509+P11712+P13584+P20813+P20815+P20853+P24462+P24903+P33260+P33261+P51589+P78329+P98187+Q02928+Q08477+Q16678+Q16696+Q5TCH4+Q6VVX0+Q7Z449+Q8TAV3+Q96SQ9+Q9HB55); test: in vitro
Cytochrome P450 3A4 = Cytochrome P450 3A4 (Homo sapiens, UniProt P08684); test: Inhibition of CYP450 3A4 (unknown origin) using midazolam as substrate; format: ADME
Chain of Cytochrome P450 3A4 (P08684 whole entry): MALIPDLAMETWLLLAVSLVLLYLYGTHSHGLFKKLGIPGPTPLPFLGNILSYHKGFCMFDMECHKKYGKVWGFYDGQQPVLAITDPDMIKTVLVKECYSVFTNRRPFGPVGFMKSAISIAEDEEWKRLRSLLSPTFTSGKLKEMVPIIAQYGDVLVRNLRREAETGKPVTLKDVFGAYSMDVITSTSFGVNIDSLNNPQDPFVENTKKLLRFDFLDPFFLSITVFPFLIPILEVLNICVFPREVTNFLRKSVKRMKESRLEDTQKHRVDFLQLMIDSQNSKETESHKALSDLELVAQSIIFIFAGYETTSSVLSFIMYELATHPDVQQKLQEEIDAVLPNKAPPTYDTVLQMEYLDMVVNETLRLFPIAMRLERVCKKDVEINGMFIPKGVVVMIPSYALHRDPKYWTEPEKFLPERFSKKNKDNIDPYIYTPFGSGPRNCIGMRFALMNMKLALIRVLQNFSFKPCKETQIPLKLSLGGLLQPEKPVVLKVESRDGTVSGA

in vivo [7] = details: Sprague-Dawley, rat, iv, 1 mg/kg
in vivo [8] = details: Sprague-Dawley, rat, iv, 1 mg/kg; remark: listed apart in the source
Description: Half-life in Sprague-Dawley rat at 1 mg/kg, iv

in vivo [9] = details: Sprague-Dawley, rat, iv, 1 mg/kg; remark: listed apart in the source
Description: Clearance in Sprague-Dawley rat at 1 mg/kg, iv

in vivo [10] = details: Sprague-Dawley, rat, iv, 1 mg/kg; remark: listed apart in the source
in vivo [11] = details: Sprague-Dawley, rat, po, 3 mg/kg
in vivo [12] = details: Sprague-Dawley, rat, po, 3 mg/kg; remark: listed apart in the source
in vivo [13] = details: Sprague-Dawley, rat, po, 3 mg/kg; remark: listed apart in the source
Description: Half-life in Sprague-Dawley rat at 3 mg/kg, po

in vivo [14] = details: Sprague-Dawley, rat, po, 3 mg/kg; remark: listed apart in the source
[15] = biological target: Mast/stem cell growth factor receptor Kit (Homo sapiens, UniProt P10721)
Chain of Mast/stem cell growth factor receptor Kit (P10721 whole entry): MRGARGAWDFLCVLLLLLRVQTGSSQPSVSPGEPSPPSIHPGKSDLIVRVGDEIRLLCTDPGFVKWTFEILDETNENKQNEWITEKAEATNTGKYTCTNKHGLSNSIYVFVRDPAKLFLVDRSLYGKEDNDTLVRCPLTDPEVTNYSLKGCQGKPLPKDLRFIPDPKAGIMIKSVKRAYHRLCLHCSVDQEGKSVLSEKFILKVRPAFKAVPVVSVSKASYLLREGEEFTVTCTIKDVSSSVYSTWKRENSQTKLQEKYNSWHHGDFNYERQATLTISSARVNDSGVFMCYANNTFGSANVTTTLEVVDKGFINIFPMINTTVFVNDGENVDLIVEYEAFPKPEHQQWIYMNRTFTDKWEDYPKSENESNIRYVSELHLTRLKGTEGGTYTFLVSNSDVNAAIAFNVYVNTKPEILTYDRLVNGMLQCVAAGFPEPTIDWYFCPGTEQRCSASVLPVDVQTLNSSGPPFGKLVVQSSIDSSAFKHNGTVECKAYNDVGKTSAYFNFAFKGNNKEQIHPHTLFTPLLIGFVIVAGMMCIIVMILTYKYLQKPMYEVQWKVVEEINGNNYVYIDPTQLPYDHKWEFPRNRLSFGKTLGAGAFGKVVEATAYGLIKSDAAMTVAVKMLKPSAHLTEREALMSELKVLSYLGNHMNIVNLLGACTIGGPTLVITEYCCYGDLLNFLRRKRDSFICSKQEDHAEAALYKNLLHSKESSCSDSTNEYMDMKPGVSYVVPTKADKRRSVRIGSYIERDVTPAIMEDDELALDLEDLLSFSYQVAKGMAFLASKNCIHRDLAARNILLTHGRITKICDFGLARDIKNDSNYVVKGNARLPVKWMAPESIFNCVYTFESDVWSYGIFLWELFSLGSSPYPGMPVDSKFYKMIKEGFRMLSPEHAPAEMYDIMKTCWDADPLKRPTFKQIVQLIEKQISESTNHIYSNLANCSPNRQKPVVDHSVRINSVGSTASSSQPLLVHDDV
Description: Inhibition of c-Kit (unknown origin)

Structure (SMILES) | solubility (physchem [1]) | logD (physchem [2]) | Papp (in vitro [3]) | microsomal CLint (in vitro [4]) | microsomal CLint (in vitro [5]) | IC50 [6] | also measured
COc1ccc(COc2ccc(Cn3cnc4cc(N5CCN(C)CC5)cnc43)cc2OC)cn1 | > 450 µg/mL | 2.3 | 29 ×10⁻⁶ cm/s | 33 µL/min/mg | 130 µL/min/mg | > 10 µM | 
COc1ccc(COc2ccc(Cn3cnc4cc(-n5cc(C(C)(C)N)nn5)cnc43)cc2OC)cn1 | 13 µg/mL (≈ 26 µM) | 1.6 | 2 ×10⁻⁶ cm/s | 21 µL/min/mg | < 7.2 µL/min/mg | > 10 µM | 
COc1ccc(COc2ccc(Cn3cnc4cc(C(=O)N5CC6(COC6)C5)cnc43)cc2OC)cn1 |  |  |  |  |  | > 10 µM | 
COc1ccc(COc2ccc(Cn3cnc4cc(C(=O)N(C)C)cnc43)cc2OC)cn1 |  |  |  |  |  | > 10 µM | 
COc1ccc(COc2ccc(Cn3cnc4cc(OC5CCNCC5)cnc43)cc2OC)cn1 |  |  |  |  |  | > 10 µM | 
COc1ccc(COc2ccc(Cn3cnc4cc(C#CC5CCNC5)cnc43)cc2OC)cn1 (centres undefined) | 57 µg/mL (≈ 121 µM) | 1.5 | 5.1 ×10⁻⁶ cm/s | 16 µL/min/mg | 19 µL/min/mg |  | IC50 (Cytochrome P450 3A4): 6.6 µM; AUC(0-inf) (in vivo [7]): 542 ng·h/mL; half-life (in vivo [8]): 2 h; clearance (in vivo [9]): 31 mL/min/kg; Vd (in vivo [10]): 4.89 L/kg; AUC(0-inf) (in vivo [11]): 625 ng·h/mL; Cmax (in vivo [12]): 108 ng/mL; half-life (in vivo [13]): 1.7 h; bioavailability (in vivo [14]): 36%
COc1ccc(COc2ccc(Cc3cnc(N)nc3N)cc2OC)cc1 [GW632580X] | 1.2 µg/mL (≈ 3.27 µM) | 2.6 | 11 ×10⁻⁶ cm/s |  |  | > 10 µM | 
Cc1nc(-c2cnc(NC(C)C)n(C)c2=O)ccc1Oc1ccnc(-c2cnn(C)c2)c1 [VIMSELTINIB] |  |  |  |  |  |  | IC50 [15]: 0.48 µM
